Experiments:
murine podocytes = test: Primary HCS screen of chemical library, cell roundness Z score, PAN injury; format: cell-based; settings: PAN 16 μg/ml, 48 hours; Z-score cutoff ≦−1.28
Protocol: Screening of chemical libraries, which include the MicroSource Spectrum collection (MicroSource Discovery Systems, Inc., Gaylorsville, C T, 2000 compounds) and Enzo kinase inhibitor array (Enzo Life Sciences, Farmingdale, N.Y., 80 compounds), Sigma, Millipore, Tocris and Cayman (41 compounds), was performed using multiwall plates. Podocytes cultured in multiwall plates were used in these assays. 100 nL of each compound, also in multiwall plates (at a stock concentration of 1 mM to 10 mM in DMSO), was added to each well of a podocyte containing multiwall plate using the Perkin Elmer Janus automated workstation with the help of a 96-pin or 384-pin pin tool (100 nL, PerkinElmer). The compounds were added in the absence or presence of podocyte damaging agent (such as PAN). The plates containing the compounds were subsequently placed in tissue culture incubators and cells were further cultured for 1-72 h at 37° C. A compound that decreased PAN damaged was identified by quantifying the changes in at least one of the following parameters: cell morphology, cell roundedness, F-actin intensity, number of focal adhesions, intensity or size of focal adhesions, length of actin fibers, size of actin fibers, percent damaged or percent healthy cells etc. In certain cases, hits were validated by acquiring a fresh batch of the compound from commercial sources and performing dose-response curves. Images from the primary screen were quantified for cell morphology parameter and were normalized by calculating z-score (z) for each test compound, to compensate for any plate-to-plate variability. (Wiggins, Kidney International, 2007) z was calculated for each of the test compounds using the formula: […]
where x is the raw measured value with each compound, μ is the mean of all measured raw values across a plate and a is the standard deviation of the measurements. A z-score of […], corresponding to 90% population under the curve, was used as a cutoff to identify primary hits in the assay.
To identify small molecules that protect podocytes from PAN injury, a chemical library of 2121 pharmacologically active compounds was screened. Podocytes were treated with compounds from the chemical library in the presence of PAN (16 μg/ml) at 37° C. for 48 hours. The assay plates also contained eight positive (PAN and MZR treatment) and eight negative (PAN treatment) control wells. Wells were imaged and analyzed, and the mean cell roundness per cell was calculated for each well. Mean cell roundness was normalized using plate-based positive and negative controls, and a Z score for the change in cell morphology on treatment with each compound (SD away from the plate mean) was calculated. The results from the screen are presented as a graph in FIG. 7A. Wells with nuclei counts. […] Primary hits (compounds that protected podocytes from PAN damage) were identified from the assay using a Z-score cutoff of ≦−1.28 corresponding to the 10% population on one side of the bell-shaped curve. […] Given that our assay is image based, the images from all initial hits were visually inspected manually, which eliminated 10 compounds as nonhits. […] The identified list of primary hit compounds included three Rho kinase inhibitors (Y27632, GSK 429286, and Thiazovivin) and a p38 kinase inhibitor (SB 203580). […] Next, to validate the hit compounds identified from our screen, selected primary hits were reanalyzed using independently obtained powder forms of the compounds.

C57BL/6J mice = test: LPS-induced proteinuria in mice; format: in vivo, mouse
Protocol: The induction of proteinuria in female wild type C57BL/6J mice (n=6-13 per group) by LPS injection was performed as described. (Reiser et al., J Clin Invest, 2004; Yanagida-Asanuma et al., The American Journal of Pathology, 2007; Faul et al., Nat Med, 2008; Yu et al., The New England Journal of Medicine, 2013.) Briefly, 10 week old female mice were intraperitoneally injected with LPS (10 mg/kg, in saline). Control mice were injected with saline alone. Animals in the treatment groups were treated with vehicle or 10 mg/kg pyr (stock in DMSO) diluted in saline 2 h prior to the administration of LPS. Spot urine was collected from each group of animals for measurement of albuminuria as mg albumin per mg creatinine. (Faul et al., Nat Med, 2008) Results are expressed as mean±SEM. The mice were sacrificed and the efficacy of pyrintegrin was further analyzed by histochemical and immunofluorescence analyses.
For light microscopy, freshly harvested mouse kidney tissue was embedded in OCT, snap frozen in liquid nitrogen and stored at −80° C. Tissue sections were cut and fixed in −20° C. acetone before immunofluorescence staining. Sections were blocked at room temperature for 1 h and incubated with the primary antibodies against total β1 integrin (hamster anti-mouse, BioLegend), active β1 integrin (Lentner et al., PNAS, 1993.) (rat anti-mouse antibody 9EG7, BD Biosciences) and synaptopodin (polyclonal goat, SC-21537, Santa Cruz) at 4° C. overnight. Slides were incubated with appropriate fluorescently labeled secondary antibodies (Life Technologies, CA) and mounted with DAPI containing mounting solution (Vector Laboratories, Burlingame, Calif.). Fluorescence images were acquired using a Zeiss 700 LSM confocal microscope with a 20× objective and analyzed using the Zen software (Carl Zeiss Group, Hartford, Conn.). For transmission electron microscopy (TEM), tissues were fixed, embedded, sectioned, and stained as previously described. Nature Medicine, 2008.) Images were acquired using Zeiss SIGMA HD VP electron microscope. […]

Structure (SMILES): O=S(=O)(NCC1CC1)c1ccc(Nc2nccc(N3CCCc4cc(O)ccc43)n2)cc1 [Pyrintegrin]
- primary hit (protects podocytes from PAN damage) (murine podocytes): top primary hit
- proteinuria, albumin per creatinine in urine (C57BL/6J mice; C57BL/6 mice, LPS 10 mg/kg i.p., pyrintegrin 10 mg/kg, 24 hours): 0.668±0.074 mg albumin per 1 mg creatinine
- active β1 integrin levels in glomeruli (antibody 9EG7) (C57BL/6J mice; mice, 24 hours after LPS, confocal microscopy): significant protection of the active β1 levels
- protection from LPS-induced podocyte FP effacement (C57BL/6J mice; mice, pyrintegrin 10 mg/kg, electron microscopy): significant protection

From patent US20170269060A1, “Assays and Compounds to Treat Kidney Diseases” (Rush University Medical Center, priority 2014, published 2017)
